Measurements published in PubChem BioAssay AID256 (DTP/NCI, 2004).
Toxic doses and inconclusive results are not listed. Positions of bridges follow the written chain, without caps; N, C: chain ends. Non-standard residues stand in square brackets, D forms with d. Residues, ends and D or L forms follow the SMILES beside them. Chains are numbered I, II in the order given. *: point of attachment. Quinoxaline2carbonyl = O=C(c1cnc2ccccc2n1)*; NMeV = CN[CH](C(=O)O)C(C)C; NMeC = CN[CH](CS)C(=O)O

Test system: CD2F1 mice, L1210 leukemia ip, survival T/C
Test: NCI In Vivo Anticancer Drug Screen. Data for tumor model L1210 Leukemia (intraperitoneal) in CD2F1 (CDF1) mice
Conditions: higher = longer survival
Outline: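 In this screen, transplantable tumors were grown in mice given either the compound or its vehicle. Results were expressed as the treated measurement relative to the control measurement.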

[1] = endpoint: mean survival time, dose: 100.0 mg/kg/injection, schedule: Q04DX003 (ip), vehicle: saline with Tween-80
[2] = endpoint: mean survival time, dose: 200.0 mg/kg/injection, schedule: Q04DX003 (ip), vehicle: saline with Tween-80
[3] = endpoint: mean survival time, dose: 400.0 mg/kg/injection, schedule: Q04DX003 (ip), vehicle: saline with Tween-80
[4] = endpoint: mean survival time, dose: 75.0 mg/kg/injection, schedule: Q01DX001 (ip), vehicle: saline

## COP(=O)(CC1CO1)OC (stereo not given)
endpoint: mean survival time, dose: 50.0 mg/kg/injection, schedule: Q01DX009 (ip), vehicle: saline
  T/C: 103 % of control
endpoint: mean survival time, dose: 100.0 mg/kg/injection, schedule: Q01DX009 (ip), vehicle: saline
  T/C: 106 % of control
endpoint: mean survival time, dose: 200.0 mg/kg/injection, schedule: Q01DX009 (ip), vehicle: saline
  T/C: 98 % of control

## CC(C)CCCC(C)C1CCC2C3CCC4CC5OCC(O)CC5CC4(C)C3CCC12C (stereo not given)
endpoint: mean survival time, dose: 100.0 mg/kg/injection, schedule: Q01DX009 (ip), vehicle: saline with Tween-80
  T/C: 96 % of control
endpoint: mean survival time, dose: 200.0 mg/kg/injection, schedule: Q01DX009 (ip), vehicle: saline with Tween-80
  T/C: 100 % of control
endpoint: mean survival time, dose: 400.0 mg/kg/injection, schedule: Q01DX009 (ip), vehicle: saline with Tween-80
  T/C: 96 % of control

## CCN(CC)C(=O)/C=C/c1ccccc1
[1]
  T/C: 103 % of control
[2]
  T/C: 101 % of control
[3]
  T/C: 103 % of control

## Nc1ncnc2nc(-c3cccc(CNC(=O)c4ccccc4S(=O)(=O)F)c3)[nH]c12
endpoint: mean survival time, dose: 100.0 mg/kg/injection, schedule: Q01DX001 (ip), vehicle: saline with Tween-80
  T/C: 87 % of control
endpoint: mean survival time, dose: 400.0 mg/kg/injection, schedule: Q01DX001 (ip), vehicle: saline with Tween-80
  T/C: 87 % of control

## Nc1nc(OCc2ccccc2)ncc1C(=O)NC(CO)C(=O)O (stereo not given)
endpoint: mean survival time, dose: 6.25 mg/kg/injection, schedule: Q01DX009 (ip), vehicle: saline with Tween-80
  T/C: 100 % of control
endpoint: mean survival time, dose: 12.5 mg/kg/injection, schedule: Q01DX009 (ip), vehicle: saline with Tween-80
  T/C: 98 % of control
endpoint: mean survival time, dose: 25.0 mg/kg/injection, schedule: Q01DX009 (ip), vehicle: saline with Tween-80
  T/C: 102 % of control

## O=P(O)(c1ccccc1CBr)c1ccccc1CBr
[4]
  T/C: 90 % of control

## C1=C[N-]c2c3c(ccc2=C1)=CC=C[N-]3.C1=C[N-]c2c3c(ccc2=C1)=CC=C[N-]3.[Cl][Ru][Cl]
endpoint: mean survival time, dose: 3.13 mg/kg/injection, schedule: Q04DX003 (ip), vehicle: water
  T/C: 90 % of control
endpoint: mean survival time, dose: 6.25 mg/kg/injection, schedule: Q04DX003 (ip), vehicle: water
  T/C: 90 % of control
endpoint: mean survival time, dose: 12.5 mg/kg/injection, schedule: Q04DX003 (ip), vehicle: water
  T/C: 88 % of control

## CO/N=C(/c1ccccc1)c1cccc[n+]1C
endpoint: mean survival time, dose: 9.4 mg/kg/injection, schedule: Q01DX009 (ip), vehicle: saline
  T/C: 107 % of control
endpoint: mean survival time, dose: 18.8 mg/kg/injection, schedule: Q01DX009 (ip), vehicle: saline
  T/C: 97 % of control
endpoint: mean survival time, dose: 37.5 mg/kg/injection, schedule: Q01DX009 (ip), vehicle: saline
  T/C: 98 % of control
[4]
  T/C: 97 % of control

## O=C(Nc1nccs1)Nc1cc([N+](=O)[O-])ccc1F
endpoint: mean survival time, dose: 50.0 mg/kg/injection, schedule: Q01DX009 (ip), vehicle: Klucel (hydroxypropylcellulose) (HPC)
  T/C: 104 % of control
endpoint: mean survival time, dose: 100.0 mg/kg/injection, schedule: Q01DX009 (ip), vehicle: Klucel (hydroxypropylcellulose) (HPC)
  T/C: 96 % of control
endpoint: mean survival time, dose: 200.0 mg/kg/injection, schedule: Q01DX009 (ip), vehicle: Klucel (hydroxypropylcellulose) (HPC)
  T/C: 93 % of control

## O=C1c2ccccc2C(=O)N1CN1CCC(CCCC2CCN(CN3C(=O)c4ccccc4C3=O)CC2)CC1
endpoint: mean survival time, dose: 25.0 mg/kg/injection, schedule: Q04DX003 (ip), vehicle: saline with Tween-80
  T/C: 95 % of control
endpoint: mean survival time, dose: 50.0 mg/kg/injection, schedule: Q04DX003 (ip), vehicle: saline with Tween-80
  T/C: 95 % of control
[1]
  T/C: 95 % of control

## NC1CCCCC1N.O=C1C=C/C(=C(/c2ccc(O)c(Br)c2)c2ccccc2S(=O)(=O)[O-])C=C1Br.O=C1C=C/C(=C(/c2ccc(O)c(Br)c2)c2ccccc2S(=O)(=O)[O-])C=C1Br.[Pt+4]
endpoint: median survival time, dose: 3.12 mg/kg/injection, schedule: Q04DX003 (ip), vehicle: saline
  T/C: 175 % of control
endpoint: median survival time, dose: 6.25 mg/kg/injection, schedule: Q04DX003 (ip), vehicle: saline
  T/C: 219 % of control
endpoint: median survival time, dose: 12.5 mg/kg/injection, schedule: Q04DX003 (ip), vehicle: saline
  T/C: 239 % of control
endpoint: median survival time, dose: 25.0 mg/kg/injection, schedule: Q04DX003 (ip), vehicle: saline
  T/C: 329 % of control

## CC1NC(=O)C(NC(=O)c2cnc3ccccc3n2)COC(=O)C(C(C)C)N(C)C(=O)C2CSSCC(C(=O)N(C)C(C(C)C)C(=O)OCC(NC(=O)c3cnc4ccccc4n3)C(=O)NC(C)C(=O)N2C)N(C)C1=O (stereo not given) (I: Quinoxaline2carbonyl-SA[NMeC][NMeV] / II: Quinoxaline2carbonyl-SA[NMeC][NMeV]; ester I:1-II:C, I:C-II:1; disulfide I:3-II:3; configuration not given here)
endpoint: mean survival time, dose: 11.2 micrograms/kg/injection, schedule: Q01DX009 (ip), vehicle: Klucel (hydroxypropylcellulose) (HPC)
  T/C: 101 % of control
endpoint: mean survival time, dose: 22.5 micrograms/kg/injection, schedule: Q01DX009 (ip), vehicle: Klucel (hydroxypropylcellulose) (HPC)
  T/C: 103 % of control
endpoint: mean survival time, dose: 45.0 micrograms/kg/injection, schedule: Q01DX009 (ip), vehicle: Klucel (hydroxypropylcellulose) (HPC)
  T/C: 105 % of control
endpoint: mean survival time, dose: 50.0 micrograms/kg/injection, schedule: Q01DX009 (ip), vehicle: other
  T/C: 114 % of control
endpoint: mean survival time, dose: 90.0 micrograms/kg/injection, schedule: Q01DX009 (ip), vehicle: Klucel (hydroxypropylcellulose) (HPC)
  T/C: 105 % of control
endpoint: mean survival time, dose: 180.0 micrograms/kg/injection, schedule: Q01DX009 (ip), vehicle: Klucel (hydroxypropylcellulose) (HPC)
  T/C: 100 % of control
endpoint: mean survival time, dose: 200.0 micrograms/kg/injection, schedule: Q01DX009 (ip), vehicle: other
  T/C: 115 % of control

## O=[N+]([O-])c1ccc(/C=C2\c3ccccc3-c3nc4ccccc4nc32)cc1
endpoint: mean survival time, dose: 75.0 mg/kg/injection, schedule: Q01DX009 (ip), vehicle: saline
  T/C: 86 % of control
endpoint: mean survival time, dose: 150.0 mg/kg/injection, schedule: Q01DX009 (ip), vehicle: saline
  T/C: 88 % of control
endpoint: mean survival time, dose: 300.0 mg/kg/injection, schedule: Q01DX009 (ip), vehicle: saline
  T/C: 95 % of control

## O=C1OC(=O)c2ccc([N+](=O)[O-])c3c([N+](=O)[O-])ccc1c23
[1]
  T/C: 92 % of control
[2]
  T/C: 95 % of control
[3]
  T/C: 90 % of control
